{"source": "patent US20230270677A1", "about": "“LONG-ACTING THERAPEUTIC AGENT COMBINATIONS AND METHODS THEREOF” (University of Washington, priority 2020, published 2023)", "key": {"[1]": {"assay": "Plasma pharmacokinetics after single subcutaneous dose in non-human primates (DcNP or free drug combination)", "conditions": "for half-life: monkey, sc", "protocol": "To evaluate whether presenting the three drugs—e.g., DTG-3TC-TFV, LPV-RTV-TFV, EFV-LPV-TFV, ATZ-RTV-TFV or 4 drugs—e.g., LPV-RTV-3TC-TFV in a combination nanosuspension using DcNP platform could provide long-acting plasma and intracellular drug exposure, macaques were subcutaneously administered with either DcNP formulated or soluble free drug combination. The free-drug combination (control) arm consisted of two groups. In the control group, 2-4 macaques were administered at an indicated single subcutaneous dose where equivalent dug combinations are dissolved in DMSO and diluted with water.\nWhole blood in EDTA tubes was immediately centrifuged and plasma was removed and frozen at −80° C. until LC-MS/MS analysis.\nPlasma drug concentrations were reported in units of nM. Non-compartmental parameters were estimated from plasma profiles for free and DcNP formulations using Phoenix WinNonlin (Certara, Princeton, N.J.). The following non-compartmental parameters were estimated: area under the plasma concentration-time curve (AUC) extrapolated to infinity; terminal half-life (t1/2); apparent clearance (CL/F); and mean body residence time (MBRT) based on moments extrapolated to infinity."}, "[2]": {"conditions": "cited from earlier work"}, "[3]": {"test_system": "HIV-1", "conditions": "read-out: therapeutically effective plasma concentration (EC50); cited from earlier work"}, "[4]": {"conditions": "cited from earlier work", "remark": "listed apart in the source"}, "[5]": {"conditions": "cited from earlier work", "remark": "listed apart in the source"}}, "note": "Read-outs that look alike come from different tables or passages of the source.", "data": [{"compound": "C[C@@H]1CCO[C@H]2Cn3cc(C(=O)NCc4ccc(F)cc4F)c(=O)c(O)c3C(=O)N12", "note": "[Dolutegravir]", "values": [{"measurement": "half-life", "setting": "[1]; plasma", "value": "> 400", "unit": "h"}, {"measurement": "Oral single dose formulation (plasma half-life, hours)", "setting": "[2]; oral", "value": 23, "unit": "h"}, {"measurement": "EC50", "setting": "[3]", "value": "0.02 to 2.14", "unit": "nM"}, {"measurement": "Water solubility", "setting": "[4]", "value": "< 95", "unit": "µg/mL"}, {"measurement": "log P", "setting": "[5]; listed as DTG", "value": "> 2"}]}, {"compound": "O=C1Nc2ccc(Cl)cc2[C@@](C#CC2CC2)(C(F)(F)F)O1", "note": "[Efavirenz]", "values": [{"measurement": "Water solubility", "setting": "[4]", "value": 0.00855, "unit": "µg/mL"}, {"measurement": "log P", "setting": "[5]", "value": 4}]}, {"compound": "Cc1cccc(C)c1OCC(=O)N[C@@H](Cc1ccccc1)[C@@H](O)C[C@H](Cc1ccccc1)NC(=O)[C@H](C(C)C)N1CCCNC1=O", "note": "[Lopinavir, (2S)—N-[(2S,4S,5S)-5-[[2-(2,6-dimethylphenoxy)acetyl]amino]-4-hydroxy-1,6-diphenylhexan-2-yl]-3-methyl-2-(2-oxo-1,3-diazinan-1-yl)butanamide]", "values": [{"measurement": "half-life", "setting": "[1]; in vivo", "value": "250 to 350", "unit": "h"}, {"measurement": "Oral single dose formulation (plasma half-life, hours)", "setting": "[2]; in vivo, po", "value": 2.5, "unit": "h"}, {"measurement": "EC50", "setting": "[3]", "value": "10 to 27", "unit": "nM"}]}, {"compound": "Cc1cc(/C=C/C#N)cc(C)c1Nc1ccnc(Nc2ccc(C#N)cc2)n1", "note": "[Rilpivirine, 4-[[4-[4-[(E)-2-cyanoethenyl]-2,6-dimethylanilino]pyrimidin-2-yl]amino]benzonitrile]", "values": [{"measurement": "EC50", "setting": "[3]", "value": "0.7 to 1.1", "unit": "nM"}, {"measurement": "log P", "setting": "[5]", "value": 4.5}]}, {"compound": "CC(C)c1nc(CN(C)C(=O)N[C@H](C(=O)N[C@@H](Cc2ccccc2)C[C@H](O)[C@H](Cc2ccccc2)NC(=O)OCc2cncs2)C(C)C)cs1", "note": "[Ritonavir, 1,3-thiazol-5-ylmethyl N-[(2S,3S,5S)-3-hydroxy-5-[[(2S)-3-methyl-2-[[methyl-[(2-propan-2-yl-1,3-thiazol-4-yl)methyl]carbamoyl]amino]butanoyl]amino]-1,6-diphenylhexan-2-yl]carbamate]", "values": [{"measurement": "half-life", "setting": "[1]; plasma", "value": "250 to 350", "unit": "h"}, {"measurement": "Oral single dose formulation (plasma half-life, hours)", "setting": "[2]; oral", "value": 2.5, "unit": "h"}, {"measurement": "EC50", "setting": "[3]", "value": "3.8 to 153", "unit": "nM"}]}, {"compound": "C[C@H](Cn1cnc2c(N)ncnc21)OCP(=O)(O)O", "note": "[Tenofovir, [(2˜{R})-1-(6-aminopurin-9-yl)propan-2-yl]oxymethylphosphonic acid]", "values": [{"measurement": "EC50", "setting": "[3]", "value": "40 to 8500", "unit": "nM"}, {"measurement": "Water solubility", "setting": "[4]", "value": 13000, "unit": "µg/mL"}, {"measurement": "log P", "setting": "[5]", "value": "−1.6"}]}, {"compound": "[(2˜{R})-1-(6-aminopurin-9-yl)propan-2-yl]oxymethylphosphonic acid [Tenofovir]", "values": [{"measurement": "DcNP formulation (non-human primates) (plasma half-life, hours)", "setting": "[1]; DcNP formulation, non-human primates", "value": ">200 to 350", "unit": "h"}, {"measurement": "Oral single dose formulation (plasma half-life, hours)", "setting": "[2]; oral", "value": "8 to 17", "unit": "h"}]}]}
